Source: patent publication US8080632B2, “Peptide mimics of melanocyte stimulating hormone” (The Feinstein Institute for Medical Research, priority 2005, dated 2011)

How the values were obtained:
[1] = system: Macrophage-like RAW cells; assay: Structure function: inhibition of LPS (4 ng/ml)-stimulated TNF release; type: cell-based, murine; settings: full range of the dose-response curve
RAW cells = assay: Cyclic-AMP production in RAW cells; type: cell-based, murine; settings: FIG. 8

EFG-2: C-terminus of human mitochondrial EF-G2: TLTSGSATFALELSTYQAMNPQDQNTLLNRRSGLT (listed as Homo sapiens)
activity in suppressing TNF release relative to MECO-1 [1]: as active as MECO-1

adrenocorticotropic hormone (SYSMEHFRWGKPVGKKRRPVKVYPNGAEDESAEAFPLEF; mammalian melanocortin ACTH (1-39)) [obtained from Bachem Bioscience]
stimulation of cAMP production (RAW cells): dose-dependent fashion
